Reference: patent US7825226B2, “Glycoprotein synthesis” (The Scripps Research Institute, priority 2002, dated 2010)

Columns and labels:
[1] = system: Bandeiraea simplicifolia II (BSII); experiment: ELISA-like assay of binding of a GlcNAc-specific lectin; conditions: 200 ng immobilized protein, absorbance at 405 nm
Experimental: Several additional experiments were performed to further characterize the mutant myoglobin. First, an ELISA-like assay was used to analyze the binding of a GlcNAc-specific lectin, Bandeiraea simplicifolia II (BSII) (see, e.g., S. Ebisu, et al., (1978), Carbohydr. Res. 61:129), to wild-type myoglobin and glyco-myoglobin. See FIG. 6, Panel A. FIG. 6, Panel A illustrates binding of a GlcNAc-specific lectin, Banderiraea simplicifolia II (BSII), to wild-type myoglobin and glycomyoglobin. A405 values are shown for wild-type myoglobin, glycomyoglobin, and negative control (no lectin added). Gly4→Compound A mutant myoglobin (200 ng) and wild type myoglobin (200 ng) were immobilized in microtiter plate wells and subsequently incubated with biotinylated BSII and streptavidin-alkaline phosphatase conjugate. Wells were incubated with p-nitrophenyl phosphate and monitored by measuring the absorbance at 405 nm. The two forms of myoglobin were immobilized in microtiter plate wells and then incubated with biotinylated BSII, streptavidin-alkaline phosphatase conjugate, and p-nitrophenyl phosphate, respectively.
(§1) Expression and characterization of mutant myoglobin. […] Proteins were analyzed by 12% SDS-PAGE and silver-stained. […]

[2] = target: T1, bovine milk galactosyltransferase (Bos taurus, UniProt P08037); experiment: on-blot galactosyltransferase labeling with UDP-[H^3]galactose; format: biochemical; conditions: 1 μg protein on PVD membrane, 24 hours at room temperature
T1 construct: from tissue; host or cells: bovine milk
T1 sequence (P08037 79-402 limits assumed): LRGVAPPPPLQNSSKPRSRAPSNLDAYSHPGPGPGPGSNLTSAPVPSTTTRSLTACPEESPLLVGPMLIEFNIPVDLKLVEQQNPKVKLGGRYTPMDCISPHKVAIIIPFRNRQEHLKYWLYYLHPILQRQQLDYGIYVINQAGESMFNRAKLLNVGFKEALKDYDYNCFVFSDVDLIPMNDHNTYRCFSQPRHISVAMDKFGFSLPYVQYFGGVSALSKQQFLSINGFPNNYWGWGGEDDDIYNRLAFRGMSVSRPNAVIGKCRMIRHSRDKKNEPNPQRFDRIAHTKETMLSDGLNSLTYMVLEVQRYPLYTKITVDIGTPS
Description: We also investigated whether the O-GlcNAc-serine residue in myoglobin could be selectively modified with a galactosyltransferase. Beta-1,4-galactosyltransferase is known to transfer galactose (Gal) from the sugar nucleotide UDP-Gal to the 4 position of an N-acetylglucosamine (GlcNAc) to form Galβ1,4GlcNAc. To determine if the O-glycosylated myoglobin can be modified with UDP-Gal, both wild-type and O-glycosylated myoglobin were resolved by SDS-PAGE and transferred to a PVD membrane. The membrane was then incubated with bovine milk galactosyltransferase and radioactive UDP-[H^3]-galactose at room temperature for 24 hours. See, e.g., K. Kamemura, et al., (2002), J. Biol. Chem. 277:19229. Incorporation of [H^3]-Gal was monitored by exposing the membrane to X-ray film. […] See FIG. 6, Panel B. FIG. 6, Panel B illustrates on-blot galactosyltransferase labeling glycomyoglobin with UDP-[H^3]galactose. Wild type myoglobin (1 μg) and Gly4→Compound A mutant myoglobin (1 μg) were resolved by 12% SDS-PAGE and transferred to a PVD membrane. The membrane was then treated with bovine milk galactosyltransferase (1 U), UDP-[H^3]galactose (0.5 μCi) and calf intestinal alkaline phosphatase (1 U) for 24 hours at room temperature. […]
as §1

[3] = system: E. coli DH10B cells; experiment: growth rate of cells grown with the unnatural amino acid; conditions: 1 mM; cells transformed with mutRNACUA^Tyr, LW1RS and Z domain gene (Lys7TAG)
Experimental: E. coli DH10B cells cotransformed with pLEIZ and pBK-LW1RS were grown in minimal media containing 1% glycerol and 0.3 mM leucine (GMML media) with 25 μg/mL kanamycin, 34 μg/mL of chloramphenicol, and 1.0 mM p-acetyl-(±)-phenylalanine.
Cells transformed with the mutRNACUA^Tyr, LW1RS and Z domain gene (Lys7TAG) were grown in the presence of 1 mM p-acetyl-(±)-phenylalanine.

In the case of “wild-type myoglobin: wild-type myoglobin used for comparison”, the “lectin binding signal (A405)” value [1] is reported as “signal equivalent to negative control wells” and the “incorporation of [H^3]-Gal (X-ray film)” value [2] is reported as “no detectable signal”.
With CC(=O)c1ccc(CC(N)C(=O)O)cc1 (racemic) [p-acetyl-(±)-phenylalanine] the “effect on growth rate of cells” value [3] was “did not affect the growth rate of cells”.
